Read-outs that look alike come from different tables or passages of the source.
Legend:
[1] = system: PrP^Sc in dividing ScN2a-cl3 cells; type: cell-based, mouse; settings: for Inhibition of Baseline PrP^5c (%) Dividing Cells ELISA: SPC assay
[2] = system: N2a-cl3 cells
[3] = system: PrP^Sc in nondividing ScN2a-cl3 cells; type: cell-based, mouse; settings: SPC assay, nondividing cells
[4] = read-out: Potency (μM) ELISA (EC50), FDA-approved drugs, ScN2a-c13 assay, dividing cells
[5] = Table 29, 2-AMT analogs tested for potency, usually n = 3 or more

For CC(=O)c1ccc2c(c1)N(CCCN(C)C)c1ccccc1S2 [Acepromazine], the EC50 [1, 4] was 6.93 µM and the “Potency (μM) Cell Viability” value ([2]; mouse) was greater than 10 µM.

For CCCCc1oc2ccccc2c1C(=O)c1cc(I)c(OCCN(CC)CC)c(I)c1 [Amiodarone], the “Potency (μM) Cell Viability” value ([2]; mouse) was greater than 10 µM.

Compound CN1CCc2cccc3c2[C@H]1Cc1ccc(O)c(O)c1-3 [Apomorphine] has an EC50 [1, 4] greater than 10 µM.

COc1ccccc1OCCNCC(O)COc1cccc2[nH]c3ccccc3c12 (stereo not shown) [Carvedilol] was tested, and the EC50 [1, 4] was 2.28 µM and the “Potency (μM) Cell Viability” value ([2]; mouse) was 6.096 µM.

For Nc1c(/N=N/c2ccc(-c3ccc(/N=N/c4cc(S(=O)(=O)O)c5ccccc5c4N)cc3)cc2)cc(S(=O)(=O)O)c2ccccc12 [Congo Red], the EC50 [1, 4] was 0.452 µM and the “Potency (μM) Cell Viability” value ([2]; mouse) was greater than 10 µM.

With CN1C[C@H](C(=O)N[C@]2(C)O[C@@]3(O)[C@@H]4CCCN4C(=O)[C@H](Cc4ccccc4)N3C2=O)C[C@@H]2c3cccc4[nH]cc(c34)C[C@H]21 [Dihydroergotamine] the EC50 [1, 4] was 6.44 µM and the “Potency (μM) Cell Viability” value ([2]; mouse) was greater than 10 µM.

CCOc1ccc(/N=N/c2ccc(N)cc2N)cc1 [Ethoxazine] was tested, and the EC50 ([1]; FDA-approved drugs, ScN2a-c13 assay, dividing cells, read-out: Potency (μM) ELISA (EC50)) was 4.76 µM and the “Potency (μM) Cell Viability” value [2] was greater than 10 µM.

Cc1cccc(Nc2nc(-c3ccncc3)cs2)n1 [IND7, (6-Methyl-pyridin-2-yl)-(4-pyridin-4-yl-thiazol-2-yl)-amine] showed an EC50 ([1]; AMT analogs tested for potency) of 1 µM and an EC50 [1, 5] of 1 µM.

In the case of Cc1ccc(Nc2nc(-c3ccncc3)cs2)nc1 [IND29, (5-Methyl-pyridin-2-yl)-(4-pyridin-4-yl-thiazol-2-yl)-amine], the EC50 ([1]; AMT analogs tested for potency) is reported as 1.57 µM and the EC50 [1, 5] is reported as 1.57 µM.

Compound Cc1ccc(Nc2nc(-c3c(-c4ccccc4)noc3C)cs2)nc1 [IND36, [4-(5-Methyl-3-phenyl-isoxazol-4-yl)-thiazol-2-yl]-(5-methyl-pyridin-2-yl)-amine] has an EC50 ([1]; AMT analogs tested for potency) greater than 32 µM and an EC50 [1, 5] greater than 32 µM.

COc1ccc(-c2csc(Nc3cc(C)ccn3)n2)cc1OC [IND42, [4-(3,4-Dimethoxy-phenyl)-thiazol-2-yl]-(4-methyl-pyridin-2-yl)-amine] showed an EC50 ([1]; AMT analogs tested for potency) of 1 µM and an EC50 [1, 5] of 1 µM.

In the case of COc1ccc(-c2csc(Nc3ccc(C(F)(F)F)cn3)n2)cc1OC [IND43, [4-(3,4-Dimethoxy-phenyl)-thiazol-2-yl]-(5-trifluoromethyl-pyridin-2-yl)-amine], the EC50 ([1]; AMT analogs tested for potency) is reported as 2.53 µM and the EC50 [1, 5] is reported as 2.53 µM.

Work on Cc1ccnc(Nc2nc(-c3cc(-c4ccc(Cl)cc4)no3)cs2)c1 [IND64, {4-[3-(4-Chloro-phenyl)-isoxazol-5-yl]-thiazol-2-yl}-(4-methyl-pyridin-2-yl)-amine] yielded an EC50 ([1]; AMT analogs tested for potency) of 0.85 µM and an EC50 [1, 5] of 0.85 µM.

With Cc1ccc(Nc2nc(-c3ccc(-c4ccccn4)s3)cs2)nc1 [IND76, (5-Methyl-pyridin-2-yl)-[4-(5-pyridin-2-yl-thiophen-2-yl)-thiazol-2-yl]-amine] the EC50 ([1]; AMT analogs tested for potency) was 1.23 µM and the EC50 [1, 5] was 1.23 µM.

COc1ccc(-c2csc(Nc3cnccn3)n2)cc1OC [IND82, [4-(3,4-Dimethoxy-phenyl)-thiazol-2-yl]-pyrazin-2-yl-amine] gave an EC50 ([1]; AMT analogs tested for potency) of 15.6 µM and an EC50 [1, 5] of 15.6 µM.

In the case of COc1ccc(-c2csc(Nc3cc4ccccc4cn3)n2)cc1 [IND86, Isoquinolin-3-yl-[4-(4-methoxy-phenyl)-thiazol-2-yl]-amine], the EC50 ([1]; AMT analogs tested for potency) is reported as 0.342 µM and the EC50 [1, 5] is reported as 0.342 µM.

COc1ccc(-c2csc(Nc3ccccn3)n2)cc1OC [IND135, [4-(3,4-Dimethoxy-phenyl)-thiazol-2-yl]-pyridin-2-yl-amine] was tested, and the EC50 ([1]; AMT analogs tested for potency) was 1.23 µM.

CCN1CCN(c2ccc(Nc3ccnc4cc5ccccc5cc34)cc2)CC1 [IND-2118] was tested, and the “Inhibition of Baseline PrP^5c (%) Dividing Cells ELISA” value (“Inhibition … (%) Dividing Cells ELISA” for short) ([1]; dividing cells) was 76%, the “Inhibition of Baseline PrP^5c (%) Non-dividing Cells ELISA” value [3] was 51% and the “Dividing Cells V (cell viability percentages)” value [2] was 25%. For the same compound, the “Non-dividing Cells V (cell viability percentages)” value [2] was 24%.

For Cc1ccc2[nH]c3c(c2c1)CCCC3NCC12CC3CC(CC(C3)C1)C2 (stereo not shown) [IND-4176], the “Inhibition … (%) Dividing Cells ELISA” value ([1]; dividing cells) was 98%, the “Inhibition of Baseline PrP^5c (%) Non-dividing Cells ELISA” value [3] was 53% and the “Dividing Cells V (cell viability percentages)” value [2] was 9%.

Cc1ccc2[nH]c3c(c2c1)CCCC3NC1CCCCC1 (stereo not shown) [IND-5381] was tested, and the “Inhibition … (%) Dividing Cells ELISA” value ([1]; dividing cells) was 27%, the “Inhibition of Baseline PrP^5c (%) Non-dividing Cells ELISA” value [3] was 48% and the “Dividing Cells V (cell viability percentages)” value [2] was 12%. The “Non-dividing Cells V (cell viability percentages)” value [2] was 16%.

With O=C(Nc1ccc(Cl)cc1)Nc1cc(Cl)cc(Cl)c1 [IND-5942] the “Inhibition … (%) Dividing Cells ELISA” value ([1]; dividing cells) was 91%, the “Inhibition of Baseline PrP^5c (%) Non-dividing Cells ELISA” value [3] was 51% and the “Dividing Cells V (cell viability percentages)” value [2] was 3%. The “Non-dividing Cells V (cell viability percentages)” value [2] was 8%.
